Test results taken from publication PMC9253027, “Methyl probes in proteins for determining ligand binding mode in weak protein–ligand complexes” (Scientific Reports, 2022).

Target: T1, EcDsbA (DsbA, oxidized) (Escherichia coli, UniProt P0AEG4)
T1 construct: 21 kDa oxidized EcDsbA
Test: X-ray crystal structure ([…] Å, soaking), intermolecular NOEs/NMR2, KD from HSQC chemical shift perturbation titration
Assay type: binding

T1 sequence (P0AEG4 20-208): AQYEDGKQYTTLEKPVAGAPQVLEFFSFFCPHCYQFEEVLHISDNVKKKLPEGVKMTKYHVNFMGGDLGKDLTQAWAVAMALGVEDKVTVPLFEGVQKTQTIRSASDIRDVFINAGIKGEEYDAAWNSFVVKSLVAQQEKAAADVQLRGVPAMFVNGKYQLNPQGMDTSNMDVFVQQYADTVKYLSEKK

O=C(O)c1sc(CCCc2ccccc2)nc1-c1ccccc1 [compound 1, phenylthiazole 1]
Kd: ~900 µM
